The record followed here is patent US9125898B2, “Acetam derivatives for pain relief” (NEUROTUNE AG, priority 2008, dated 2015).

Assay [1] concerns ddC induced mechanical allodynia in rats. Nature of the assay: ddC induced mechanical allodynia in rats, von Frey test. The class given is in vivo, rat. The conditions noted are these: for Reversal of ddC-induced neuropathy (mechanical threshold, von Frey): FIG. 4, 15 min after drug administration. How it is done: Painful peripheral NP may be induced in rats by i.v. administration of 2′,3′-dideoxycytidine (ddC) mimicking what is seen in AIDS patients undergoing antiviral therapy. The ddC test represents a useful and predictive model to study molecules with analgesic potential in human neuropathic states.
Adult male SD rats (Harlan, Italy, 150-200 g weight) were used. Animals were treated with 25 mg/kg i.v. bolus of 2′,3′-dideoxycytidine, an inhibitor of nucleoside reverse transcriptase used for AIDS therapy that in rodents induces a peripheral neuropathy resulting in allodynic responses to mechanical stimuli. Symptoms severity peaks between 5 to 10 days after administration (Joseph, E. K. et al. —Pain 107 (2004) 147-158). Ten days after administration of ddC, as an intravenous (i.v.) bolus, test substances were administered every day, once a day or b.i.d for 4 weeks. Dosing was withheld in those days in which allodynic tests were performed, and lasted for 24 h and 48 h.
NT-11624 was dissolved in distilled water and was orally by gavage administered as follows • Group 1: 100 mg/kg b.i.d. for 14 days, followed by 50 mg/kg b.i.d. for 7 days, then 50 mg/kg u.i.d. for 7 days. • Group 2: 50 mg/kg b.i.d. for 28 days.
Pregabalin (3B Pharmachem (Wuhan) International Co.) was dissolved in 1% CMC (carboxymethylcellulose) and orally administered at the dose of 15 mg/kg b.i.d. for 28 days.
Thresholds for mechanical allodynia were measured using an electronic Von Frey apparatus. […] After 4 week drug administration, additional tests were performed beyond the 60 min point, at 4, 8, 24, 48 and 56 h. Results represent the mean (±S.E.M.) of mechanical thresholds expressed in grams.
Drugs: The following substance was used: NT-11624 (batch No. 0000104580 supplied by Brane Discovery Srl, Gerenzano Italy). NT-11624 was dissolved in distilled water and given p.o. every day, except in those days in which allodynic tests were performed and lasted for 24 h, 48 h and 56 h (i.e. days 1, 3, 7, 10, 14, 21, 28).
The following groups of treatment were utilized: • NT-11624 (Group 1): rats received 100 mg/kg b.i.d. of NT-11624 for 14 days, then 50 mg/kg b.i.d. for 7 days, then 50 mg/kg u.i.d. for 7 days. • NT-11624 (Group 2): rats received 50 mg/kg b.i.d. for 28 days • Pregabalin: rats received 15 mg/kg b.i.d. for 28 days
Administration volume was 10 ml/kg body weight. Pregabalin [3B Pharmachem (Wuhan), International Co] was dissolved in CMC 1% (carboxymethylcellulose, Sigma-Aldrich, Italy), and orally given as described before. Control rats received vehicle only.
ddC intravenous injection: ddC was dissolved in saline to a concentration of 25 mg/kg (1 ml) and was administered i.v. into the rat tail vein. Control rats were treated with an equal volume of saline i.v.
The administration of ddC produces dose-dependent mechanical hypersensitivity and allodynia peaking in severity between 5-10 days after the administration. The test is usually performed at day 10.
Von Frey test: Each animal was placed in a chamber with a mesh metal floor covered by a plastic dome that enabled the animal to walk freely, but not to jump. The mechanical stimulus was then delivered in the mid-plantar skin of left hind paw using an electronic Von Frey apparatus (37400 Dynamic Plantar Aesthesiometer; Ugo Basile, Comerio, Varese, Italy). The cut-off was fixed at 50 g, while the increasing force rate (ramp duration) was settled at 20 sec. […] At day 28, additional tests were performed at 4, 8, 24, 48 and 56 h after drug administration. Results represent the mean (±S.E.M.) of mechanical thresholds expressed as grams.

The subject of assay [2] is MIA induced hyperalgesia in the rat. Nature of the assay: MIA induced hyperalgesia in the rat (paw-pressure test). It is filed as in vivo. The conditions noted are these: for Mechanical threshold, before treatment, first day basal: baseline. From the text:
Peripheral neuropathic induced in rats by administration into the left knee joint of MIA mimics chronic pain condition of osteoarthritis found in a large part of population over 60 years. The MIA test represents an useful and predictive model to study the anti-hyperalgesic potential of a drug in human osteoarthritic condition.
Drugs: The following substances were used: NT-11624 (batch n 66-MM3/16 supplied by Brane Discovery Sri, Gerenzano Italy) and tramadol (Tocris, UK). […] Control rats received saline only.
Sodium monoiodoacetate injection: A single intra-articular injection of sodium iodoacetate (MIA) was introduced into the right knee joint. […] Briefly, rats were deeply anaesthetized by ethylic ether. Following abolition of the hindpaw pinch withdrawal reflex, a 27-gauge needle was introduced into the joint cavity between the tibial plateau and femoral condyles. Once in place, 2 mg of MIA were solubilized in a volume of 25 ul and injected into the joint and the animal was allowed to recover for 14 days prior to pain assessment. It has consistently been shown that this dose of MIA causes osteoarthritic-like focal lesions in articular cartilage and subchondral bone thickening 14 days after administration Guingamp C. et al. Arthritis Rheum 40, 1670-9 (1997). Therefore this model can easily and quickly reproduce osteoarthritic-like lesions and functional impairment in rats, similar to that observed in human disease.
The administration of MIA induces in rats a hyperalgesic response to mechanical stimuli that reaches its statistical significance 5 days after administration and persists for 4 weeks (Fernihough et al. Pain 112:83-93 (2004)).
Control rats were treated with an equal volume of saline. […]
Starting from day 17 after MIA injection, paw pressure tests were performed.
Mechanical hyperalgesia: Paw mechanical sensitivity was determined using a Randall & Selitto apparatus exerting a force that increases at constant rate (32 g/s). The stimulus at which rats withdrawn the paw was evaluated before treatment (First day basal) and at the end of the treatment as following: before last treatment (pre-dose), and after last treatment (15, 30, 45, 60 min, 24, 48 and 72 h).
Results represent the mean of mechanical thresholds expressed as grams. To avoid any possible damage to the animal paw the maximum applied force was fixed at 240 g.

The mark [3] stands for this setting: Group 1 down-titration schedule, p.o.
Setting [4] is: Group 2: 50 mg/kg b.i.d. p.o. for 28 days, 50 mg/kg.
The mark [5] stands for this setting: MIA rats, 14 days b.i.d. p.o. (NT-11624 150 mg/kg, tramadol 40 mg/kg).
Where [6] appears, read: MIA rats, 14 days b.i.d. p.o., NT-11624 150 mg/kg.
Where [7] appears, read: MIA rats, single p.o. administration on saline b.i.d. (NT-11624 150 mg/kg, tramadol 40 mg/kg).
Where [8] appears, read: 15 mg/kg b.i.d. p.o. for 28 days.

Entries after “also recorded” stand apart in the source; their conditions may differ.

Regarding `O=C1CN2C(=O)CCC2N1` (centres unmarked) [NT-11624, 2,5-dioxohexahydro-1H-pyrrolo[1,2-a]imidazole], in assay [1], the “Reversal of ddC-induced neuropathy (mechanical threshold, von Frey)” value is listed as “fully reverts”. In assay [1] (Group 1: 100 mg/kg b.i.d. 14 days, then 50 mg/kg b.i.d. 7 days, then 50 mg/kg u.i.d. 7 days, p.o.), the “Onset of anti-allodynic effect” value is on record as “starting from the third day; also recorded: as of day 3”. For the same molecule, in assay [1] (setting [3]), the “Anti-allodynic effect 56 h from the last administration” value is recorded as “still significant protection; also recorded: robust effect”, the “Anti-allodynic effect at day 14” value is reported as “complete protection” and the “Anti-allodynic effect up to 48 h from the last administration (day 28)” value is reported as “full reversal of allodynia”. In assay [1] (Group 2: 50 mg/kg b.i.d. p.o. for 28 days), the “Effect up to 24 h after the last administration” value is recorded as “clearly evident”. Also, in assay [1] (setting [4]), the “Effect 48 h after the last administration” value is given as “still significant; also recorded: still evident” and the “Onset of anti-pain response” value is recorded as “starting from day 10; also recorded: as of day 10”. Besides, the “Anti-hyperalgesic effect 15 min until 48 h after last dosing” value in assay [2] (150 mg/kg b.i.d. oral, 2 weeks) was “lasted throughout the experiment”. Also, the “Paw pressure hyperalgesic response at the pre last administration test” value in assay [2] (75 and 150 mg/kg b.i.d. oral, 2 weeks, 13 h after the evening administration of the previous day) is given as “significant reduction of the hyperalgesia”. Further, in assay [2] (setting [5]), the “Mechanical threshold, after last treatment 15 min” value is reported as 72.6 ± 4.1 g; the “Mechanical threshold, after last treatment 30 min” value is on record as 75.0 ± 2.2 g; the “Mechanical threshold, after last treatment 45 min” value worked out at 70.5 ± 2.7 g; the “Mechanical threshold, before last treatment, pre-dose” value was found to be 65.1 ± 2.5 g. Moreover, in assay [2] (setting [6]), the “Mechanical threshold, after last treatment 60 min” value is on record as 60.6 ± 4.2 g; the “Mechanical threshold, after last treatment 24 h” value came out at 55.3 ± 4.8 g; the “Mechanical threshold, after last treatment 48 h” value stood at 43.9 ± 4.0 g. The “Mechanical threshold, after last treatment 72 h” value in assay [2] (MIA rats, 14 days b.i.d. p.o., NT-11624 150 mg/kg, mean of 4 rats) is recorded as 34.8 ± 3.7 g. For the same molecule, the “Mechanical threshold, before treatment, first day basal” value in assay [2] (MIA rats, groups later treated 14 days b.i.d. p.o. (NT-11624 150 mg/kg, tramadol 40 mg/kg)) is 63.5 ± 3.2 g. In addition, the “Mechanical threshold, before treatment, first day basal” value in assay [2] (MIA rats, single administration groups (saline 14 days b.i.d. first)) is on record as 60.4 ± 2.7 g. The “Mechanical threshold, before last treatment, pre-dose” value in assay [2] (MIA rats, single administration on saline b.i.d., before the single p.o. dose (NT-11624 150 mg/kg, tramadol 40 mg/kg)) turned out to be 23.9 ± 3.5 g. In assay [2] (setting [7]), the “Mechanical threshold, after last treatment 15 min” value is listed as 33.8 ± 3.1 g; the “Mechanical threshold, after last treatment 30 min” value is recorded as 39.3 ± 2.8 g; the “Mechanical threshold, after last treatment 45 min” value was 26.2 ± 3.1 g. The “Antihyperalgesic activity at 48 h after the last treatment” value in assay [2] (NT-11624 150 mg/kg p.o., 14 days b.i.d.) was “statistically significant activity”. For the same molecule, the “Duration of beneficial effect after last dosing” value in assay [2] (after a 2 week oral b.i.d. treatment) is listed as “at least 48 h”. Further, the “Effect of a single oral dose on mechanical threshold (in words)” value in assay [2] (single oral dose after saline b.i.d. for 14 days (NT-11624 150 mg/kg, tramadol 40 mg/kg)) is “significant increase of mechanical threshold only at 30 min”. In addition, the “Antihyperalgesic activity after the last treatment (in words)” value in assay [2] (treatment for 14 days b.i.d. p.o. (NT-11624 150 mg/kg, tramadol 40 mg/kg)) is recorded as “completely protects from MIA-induced hyperalgesia up to 24 h”.

In the case of `CC(C)C[C@H](CN)CC(=O)O` [Pregabalin, reference compound], in assay [1] (15 mg p.o. b.i.d.), the “Onset of effect on allodynic threshold” value is “modest but significant effect already from day 1”. In assay [1] (setting [8]), the “Day of peak effect” value amounted to 14 days and the “Effect of the last administration on day 28” value is listed as “moderate beneficial effect that disappeared after 8 h”.

Consider `CC[C@@H](C(N)=O)N1CCCC1=O` [levetiracetam, reference compound], for which, in assay [1], the “Reversal of ddC-induced neuropathy (mechanical threshold, von Frey)” value is recorded as “not”.
